Test system: idiopathic/treatment-resistant chronic cough patients
Assay: double-blind randomized placebo-controlled crossover trial in idiopathic/treatment-resistant chronic cough
Assay type: in vivo, human
Conditions: 2 weeks
Protocol: Thus, the inventors explored the role of P2X3 receptors in the sensitization of vagal pathways mediating the cough reflex leading to chronic cough (CC). A study was performed to investigate the efficacy of oral administration of Compound 16 in reducing daytime cough in idiopathic/treatment-resistant chronic cough.
In this study, a double-blind randomized placebo-controlled crossover trial, 24 subjects (19 women, mean age 55 yrs) were randomized into a double blind, placebo-controlled, 2-period, crossover study, of Compound 16, 600 mg bd. Cough was assessed using an ambulatory sound monitoring system at baseline and after 2 weeks of treatment; primary endpoint, daytime objective cough frequency (coughs/hr) (VitaloJAK™); secondary endpoints, cough severity and urge to cough (UTC) visual analogue scales (VAS), global ratings of change and cough quality of life questionnaire (CQLQ).

## COc1cc(C(C)C)c(Oc2cnc(N)nc2N)cc1S(N)(=O)=O [Compound 16, 5-(2,4-Diamino-pyrimidin-5-yloxy)-4-isopropyl-2-methoxy-benzenesulfonamide]
600 mg bd oral, (−2 to −17), p=0.018
  CQLQ (cough quality of life questionnaire), mean difference vs. placebo: −9
600 mg bd oral, (−2 to −41), p=0.035
  UTC (urge to cough) VAS, mean difference vs. placebo: −21 mm
600 mg bd oral, (−10 to −42), p=0.003
  cough severity VAS, mean difference vs. placebo: −26 mm
600 mg bd oral, compared to 2/22 treated with placebo
  patients who rated an improved cough (global rating of change): 13/24
Compound 16 600 mg bd oral, 24 subjects, 95% CI −50 to −88, p<0.001
  daytime coughs/hr (daytime objective cough frequency), mean difference vs. placebo: −75%
